Experimental data from patent US4539326A, “5-Oxo-5H-(1)benzopyrano(2,3-b)pyridine derivatives, their production and use as anti-inflammatory agents” (Takeda Chemical Industries, Ltd., priority 1982, dated 1985).

What was measured:
[1] = tested on: adjuvant arthritis; assay: Action of inhibiting adjuvant arthritis (M. butyricum adjuvant, oral, 14 days); format: in vivo, male Sprague-Dawley rats (6-week old); conditions: for Systemic inflammation score / Increase in body weight / Weight of thymus: 50 mg/kg oral once a day; for Systemic inflammation score: max score 20; for Increase in body weight / Weight of thymus: day 14; for Restraint of the increase in body weight (result in words) / Systemic inflammation score (result in words) / Weight of thymus (result in words): oral once a day for 14 days, compared with control group
Procedure: As experimental animal, male Sprague-Dawley rats (6-week old) were used.
(§1) Adjuvant arthritis was induced by suspending killed cells of mycobacteria (M. butyricum strain) in liquid paraffin and injecting the rats with the resultant suspension beneath the skin of the hind-paw. The suspension obtained by suspending 70 mg of the test specimen [disodium(7-ethyl-3-carboxylato-5-oxo-5H-[1]benzopyrano[2,3-b]pyridin-2-yl)acetate] in 7 ml of 4% gum arabic was administered orally to rats once a day at a rate of 0.5 ml per 100 g of body weight for the consecutive 14 days after the injection of adjuvant. The degrees or severities of the inflammations induced on the other hind paw not injected with adjuvant, front paws, tail and ears were graded 1 to 5, and the grades were summed up for each animal, with the highest mark in total for the four body spots being 20. In addition, effects exerted by the administration on the increase in body weight (difference between the body weights measured after 14 days and on the day of sensitization) and the weight of thymus were investigated, and were compared with those obtained with the control group.
as §1, with “in liquid paraffine and injecting” for “in liquid paraffin and injecting”, “skin of hind-paw. The” for “skin of the hind-paw. The”, “test specimen [ethyl(7-ethyl-3-ethoxycarbonyl-5-oxo-5H-[1]benzopyrano[2,3-b]pyridin-2-yl)acetate] in 7” for “test specimen [disodium(7-ethyl-3-carboxylato-5-oxo-5H-[1]benzopyrano[2,3-b]pyridin-2-yl)acetate] in 7”

[2] = tested on: carrageenin-induced edema; assay: rat carrageenin-induced edema method (antiinflammatory activity); format: in vivo
[3] = tested on: phenylquinone writhing; assay: mouse phenylquinone writhing method (analgesic activity); format: in vivo

CCOC(=O)Cc1nc2oc3ccc(CC)cc3c(=O)c2cc1C(=O)OCC [ethyl(7-ethyl-3-ethoxycarbonyl-5-oxo-5H-[1]benzopyrano[2,3-b]pyridin-2-yl)acetate]
Systemic inflammation score ([1]; Experiment 2 (Table 2), day 12 after sensitization, control 6.7 ± 0.8, ** P <0.01): 3.3 ± 0.7 | Increase in body weight ([1]; Experiment 2 (Table 2), control 42.5 ± 3.2): 43.3 ± 8.6 g | Weight of thymus ([1]; Experiment 2 (Table 2), control 286.5 ± 34.3): 444.2 ± 69.9 mg | Systemic inflammation score ([1]; Experiment 2 (Table 2), day 14 after sensitization, control 8.0 ± 0.5, ** P <0.01): 4.0 ± 1.0 | Restraint of the increase in body weight (result in words) [1]: improve the systemic inflammation score and the restraint of the increase in body weight | Systemic inflammation score (result in words) [1]: improve the systemic inflammation score | Weight of thymus (result in words) [1]: tendency to increase the weight of thymus

CCc1ccc2oc3nc(CC(=O)O)c(C(=O)O)cc3c(=O)c2c1 [disodium(7-ethyl-3-carboxylato-5-oxo-5H-[1]benzopyrano[2,3-b]pyridin-2-yl)acetate]
Systemic inflammation score ([1]; Experiment 1 (Table 1), day 12 after sensitization, control 7.0 ± 0.9, * P <0.05): 3.7 ± 1.1 | Increase in body weight ([1]; Experiment 1 (Table 1), control 42.2 ± 2.5): 50.0 ± 3.1 g | Weight of thymus ([1]; Experiment 1 (Table 1), control 211.7 ± 21.5, * P <0.05): 375 ± 52.0 mg | Systemic inflammation score ([1]; Experiment 1 (Table 1), day 14 after sensitization, control 8.8 ± 0.7, * P <0.05): 4.7 ± 1.6 | Restraint of the increase in body weight (result in words) [1]: improve the systemic inflammation score and the restraint of the increase in body weight | Systemic inflammation score (result in words) [1]: improve the systemic inflammation score | Weight of thymus (result in words) [1]: increase the weight of thymus | Antiinflammatory activity [2]: neither to exhibit the antiinflammatory activity | Analgesic activity [3]: neither to exhibit the antiinflammatory activity in the rat carrageenin-induced edema method and the analgesic activity
